Experimental data published in patent US5077204A, “Yeast endopeptidase for basic amino-acid site cleavage, preparation and use” (Chiron Corporation, priority 1988, dated 1991).
Peptide text beside a SMILES is read from it. * marks the point of attachment. AMC = Cc1cc(=O)oc2cc(N*)ccc12; βNA = c1ccc2cc(N*)ccc2c1; Cbz = O=C(OCc1ccccc1)*; Boc = CC(C)(C)OC(=O)*

Experiments:
Type in all cases: biochemical, S. cerevisiae
[1] = target: T1, KEX2 endopeptidase (Brij 58-permeabilized kex2 cells carrying pJ2B) (Saccharomyces cerevisiae, UniProt P13134); assay: Peptidase activity in detergent-permeabilized kex2 cells carrying pJ2B; settings: for Rate of hydrolysis, kex2 cells carrying pJ2B versus kex2 cells harboring the vector alone: detergent-permeabilized cells; for Rate of hydrolysis relative to the lysine-containing substrate (Boc-GluLysLys-MCA), times faster: detergent-permeabilized kex2 cells carrying pJ2B
T1 construct: not only includes the KEX2 gene, but also the necessary transcriptional and translational regulatory signals for expression in yeast; expressed in transfected cells; host or cells: S. cerevisiae XBH16-15A (MATalpha kex2-1) carrying YEp24-pJ2B
Procedure: (§1) Permeabilization of whole yeast cells with the non-ionic detergent Brij 58, preparation of crude membrane fractions, and measurement of protein concentration were conducted by the methods described previously (Julius et al., 1983, supra), incorporated herein by reference. To measure peptidase activity, samples of permeabilized cells or membrane material were added to a reaction mixture containing 0.1-0.5 mM fluorogenic peptide substrate (added from a 20 mM stock dissolved in DMSO) and 200 mM HEPES-Tris (pH 7.0), in a final volume of 0.4 ml. Following incubation for 30 min at 37° C., whole cells were removed by centrifugation in a microfuge (Eppendorf) and membrane material was removed by Ba(OH)2 -ZnSO4 precipitation. The amount of fluorescence formed in the supernatant solution was determined in a fluorescence spectrophotometer (Perkin-Elmer, Model MPF-44B), set either at an excitation wavelength of 335 nm and an emission wavelength of 410 nm (for measurement of β-naphthylamine) or at an excitation wavelength of 380 nm and an emission wavelength of 460 nm (for measurement of 7-amino-4-methyl-coumarin, AMC). To determine the number of moles of substrate hydrolyzed, the fluorescence yield of samples was compared to a standard curve prepared with known concentrations of authentic AMC dissolved in the same buffer.

[2] = target: T2, KEX2 endopeptidase (kex2[YEp24-pJ2B] membranes) (Saccharomyces cerevisiae, UniProt P13134); assay: Endopeptidase activity in membranes from kex2 cells carrying multicopy plasmid pJ2B (over-produced specific endopeptidase); settings: for Relative Ratio: kex2[YEp24-pJ2B] relative to kex2[YEp24] = [1.0]; for Rate of hydrolysis, membranes from kex2 cells carrying pJ2B versus membranes from kex2 cells carrying YEp24: membrane fractions, depending on the experiment
T2 construct: not only includes the KEX2 gene, but also the necessary transcriptional and translational regulatory signals for expression in yeast; expressed in transfected cells; host or cells: S. cerevisiae XBH16-15A (MATalpha kex2-1) carrying YEp24-pJ2B
T2 sequence (P13134 114-814): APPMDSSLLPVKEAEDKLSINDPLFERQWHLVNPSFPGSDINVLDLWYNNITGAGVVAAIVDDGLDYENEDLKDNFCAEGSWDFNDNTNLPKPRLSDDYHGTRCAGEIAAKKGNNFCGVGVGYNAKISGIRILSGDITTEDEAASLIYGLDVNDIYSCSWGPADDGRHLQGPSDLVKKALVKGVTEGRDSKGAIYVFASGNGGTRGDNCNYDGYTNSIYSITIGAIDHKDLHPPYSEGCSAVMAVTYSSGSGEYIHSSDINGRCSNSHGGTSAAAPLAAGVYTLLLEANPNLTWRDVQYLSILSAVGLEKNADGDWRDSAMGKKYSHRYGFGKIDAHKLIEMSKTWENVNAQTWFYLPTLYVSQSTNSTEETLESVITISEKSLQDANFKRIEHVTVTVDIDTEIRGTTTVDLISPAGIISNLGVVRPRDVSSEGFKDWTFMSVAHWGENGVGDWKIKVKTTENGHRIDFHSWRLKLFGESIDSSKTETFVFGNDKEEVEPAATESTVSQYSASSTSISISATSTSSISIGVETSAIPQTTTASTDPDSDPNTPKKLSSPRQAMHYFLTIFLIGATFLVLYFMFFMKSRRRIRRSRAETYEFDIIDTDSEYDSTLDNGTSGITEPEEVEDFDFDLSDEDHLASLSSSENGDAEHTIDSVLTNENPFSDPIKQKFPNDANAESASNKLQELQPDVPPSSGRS
Procedure: as §1
(§2) Cells of strain XBH1615A that had been transformed with the plasmids
(§3) indicated, or that contained pJ2B in integrated form, were grown in SCUra
(§4) and membranes were prepared as described in the Experimental.
(§5) Endopeptidase activity was assayed as described in the Experimental. All
(§6) substrates tested were present at 0.1 mM.
(§7) Endopeptidase activity was assayed using Boc--GlnArgArg--MCA as the
(§8) substrate, as outlined in the Experimental. All inhibitors were added fro
a 0.1 M stock dissolved in dimethyl sulfoxide.

[3] = target: T3, KEX2 endopeptidase (kex2::pJ2B membranes) (Saccharomyces cerevisiae, UniProt P13134); assay: Endopeptidase activity in membranes from kex2 cells containing pJ2B in integrated form; settings: for Relative Ratio: kex2::pJ2B relative to kex2[YEp24] = [1.0]
T3 construct: not only includes the KEX2 gene, but also the necessary transcriptional and translational regulatory signals for expression in yeast; expressed in transfected cells; host or cells: S. cerevisiae XBH16-15A (MATalpha kex2-1) containing pJ2B in integrated form; crude membranes
Procedure: as §1, §2, §3, §4, §5, §6, §7, §8
(§9) a 0.1 M stock dissolved in dimethyl sulfoxide. All values given were
(§10) corrected for the slight effects of addition of this solvent alone.

[4] = tested on: background activity in membranes of kex2[YEp24] cells; assay: Endopeptidase activity in membranes from kex2 cells transformed with the vector YEp24 alone (background activity)
Procedure: as §1, §2, §3, §4, §5, §6, §7, §8, §9, §10

[5] = target: T4, KEX2 endopeptidase (lysate of XBH16-15A carrying YEp24-pJ2B) (Saccharomyces cerevisiae, UniProt P13134); assay: Release of endopeptidase activity from membranes by detergent treatment
T4 construct: not only includes the KEX2 gene, but also the necessary transcriptional and translational regulatory signals for expression in yeast; expressed in transfected cells; host or cells: S. cerevisiae XBH16-15A (MATalpha kex2-1) carrying YEp24-pJ2B
Procedure: as §1
Strain XBH1615A carrying the KEX2 gene on a multicopy plasmid (YEp24pJ2B)
was grown to midexponential phase in SCUra. The cells were collected by
centrifugation and a lysate was prepared as described in the Experimental
The lysate was divided into two equal portions, one of which was treated
with the nonionic detergent Triton X100 at a final concentration of 1%.
Samples of both the original lysate and the detergenttreated lysate were
saved and the remainder of each was separated into a crude membrane
fraction (P100) and a soluble fraction (S100) by centrifugation at 100,00
× g for 1 hr for endopeptidase activity using
Boc--GlnArgArg--MCA as the substrate, as given in the Experimental.

[6] = kex2[YEp24-pJ2B], Triton X-100 1% + 5 mM TPCK, substrate Boc-GlnArgArg-MCA
[7] = kex2[YEp24-pJ2B], Triton X-100 1%, substrate Boc-GlnArgArg-MCA
[8] = kex2::pJ2B, Triton X-100 1% + 5 mM TPCK, substrate Boc-GlnArgArg-MCA
[9] = kex2::pJ2B, Triton X-100 1%, substrate Boc-GlnArgArg-MCA
[10] = kex2[YEp24], Triton X-100 1% + 5 mM TPCK, substrate Boc-GlnArgArg-MCA
[11] = kex2[YEp24], Triton X-100 1%, substrate Boc-GlnArgArg-MCA
[12] = +1% Triton X-100, P100 crude membrane fraction
[13] = +1% Triton X-100, S100 soluble fraction
[14] = strain kex2[YEp24-pJ2B], substrate 0.1 mM, membranes
[15] = strain kex2::pJ2B, substrate 0.1 mM, membranes
[16] = strain kex2[YEp24], substrate 0.1 mM, membranes

C[C@H](NC(=O)OCc1ccccc1)C(=O)N[C@@H](CCCNC(=N)N)C(=O)N[C@@H](CCCNC(=N)N)C(=O)Nc1ccc2ccccc2c1 [CBZ-AlaArgArg-β-naphthylamide] (Cbz-Ala-Arg-Arg-βNA)
Rate of hydrolysis, kex2 cells carrying pJ2B versus kex2 cells harboring the vector alone [1]: six- to ninefold greater | Rate of hydrolysis relative to the lysine-containing substrate (Boc-GluLysLys-MCA), times faster [1]: ~30 times

Triton X-100
Relative Ratio ([2]; Triton X-100 1% + 5 mM TPCK): 127.4 | Inhibition [2, 6]: 0% | Specific Activity [2, 6]: 152.9 pmoles/μg/10 min | Inhibition [2, 7]: 0% | Specific Activity [2, 7]: 155.0 pmoles/μg/10 min | Susceptibility of the specific KEX2 endopeptidase to inhibition or inactivation ([2]; kex2 cells transformed with plasmid pJ2B, comparisons are to the background activity): slightly activated | Relative Ratio ([3]; Triton X-100 1% + 5 mM TPCK): 9.4 | Inhibition [3, 8]: 34% | Specific Activity [3, 8]: 11.4 pmoles/μg/10 min | Inhibition [3, 9]: 26% | Specific Activity [3, 9]: 12.9 pmoles/μg/10 min | Inhibition [4, 10]: 76% | Specific Activity [4, 10]: 1.2 pmoles/μg/10 min | Inhibition [4, 11]: 71% | Specific Activity [4, 11]: 1.5 pmoles/μg/10 min | Susceptibility of the background activity to inhibition ([4]; kex2 cells transformed with YEp24 alone): greatly reduced | % of Recovery ([5]; +1% Triton X-100, P100 + S100): 94% | % of Total [5, 12]: 19% | Specific Activity [5, 12]: 50.0 pmoles/μg/10 min | % of Total [5, 13]: 75% | Specific Activity [5, 13]: 200.0 pmoles/μg/10 min | Specific Activity ([5]; +1% Triton X-100, whole lysate, substrate Boc-GlnArgArg-MCA): 265.0 pmoles/μg/10 min | Solubilization of the specific KEX2 endopeptidase from membranes ([5]; Triton X-100 at final concentration of 1%): readily solubilized from membranes

Cc1cc(=O)oc2cc(NC(=O)[C@H](CCCCN)NC(=O)[C@H](CCCCN)NC(=O)[C@H](CCC(=O)O)NC(=O)OC(C)(C)C)ccc12 [Boc--GluLysLys--MCA, Boc-GluLysLys-MCA] (Boc-Glu-Lys-Lys-{AMC})
Relative Ratio ([2]; substrate 0.1 mM): 6.3 | Rate of hydrolysis relative to Boc-GlnArgArg-MCA, times more slowly ([2]; membrane fractions of kex2 cells carrying pJ2B): about 50 times | Rate of hydrolysis, membranes from kex2 cells carrying pJ2B versus membranes from kex2 cells carrying YEp24 [2]: about six-fold | Specific Activity [2, 14]: 1.9 pmoles AMC formed/μg protein 10 | Relative Ratio ([3]; substrate 0.1 mM): 1.7 | Specific Activity [3, 15]: 0.5 pmoles AMC formed/μg protein 10 | Specific Activity [4, 16]: 0.3 pmoles AMC formed/μg protein 10 | Rate of hydrolysis, kex2 cells carrying pJ2B versus kex2 cells harboring the vector alone [1]: six- to ninefold greater

Cc1cc(=O)oc2cc(NC(=O)[C@H](CCCNC(=N)N)NC(=O)[C@H](CCCNC(=N)N)NC(=O)[C@H](CCC(N)=O)NC(=O)OC(C)(C)C)ccc12 [Boc--GlnArgArg--MCA, Boc-GlnArgArg-7-amino-4-methyl-coumarin] (Boc-Gln-Arg-Arg-{AMC})
Relative Ratio ([2]; substrate 0.1 mM): 20.2 | Rate of hydrolysis, membranes from kex2 cells carrying pJ2B versus membranes from kex2 cells carrying YEp24 [2]: 20- to 35 fold | Specific Activity [2, 14]: 100.8 pmoles AMC formed/μg protein 10 | Relative Ratio ([3]; substrate 0.1 mM): 3.3 | Specific Activity [3, 15]: 16.7 pmoles AMC formed/μg protein 10 | Specific Activity [4, 16]: 5.0 pmoles AMC formed/μg protein 10 | Rate of hydrolysis, kex2 cells carrying pJ2B versus kex2 cells harboring the vector alone [1]: six- to ninefold greater | Rate of hydrolysis relative to the lysine-containing substrate (Boc-GluLysLys-MCA), times faster [1]: ~30 times
